# Where two headings read alike, the source gives them in different places.
# Tests used:
# Format in all cases: cell-based
# ΔF508-CFTR [1] = target: T1, ΔF508-CFTR (Homo sapiens, UniProt P13569, DEL508-508); experiment: CFTR cell surface levels using HRP-tagged ΔF508-CFTR expressing CFBE cells, intrinsic corrector capacity; design: % Activation: concentration or dose not given beside the values; conditions: HRP-tagged ΔF508-CFTR expressing CFBE41o- cells, compound alone (intrinsic corrector capacity), 20 hours at 33° C.; for EC50: read-out: EC50
# T1 construct: host or cells: CFBE41o-, doxycycline-inducible
# Summary of the method: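 Surface ΔF508-CFTR was measured as HRP chemiluminescence from an extracellular-loop-4 tag, expressed as percent activity between DMSO and a […] corrector control.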
# ΔF508-CFTR [2] = target: T1, ΔF508-CFTR; experiment: CFTR cell surface levels using HRP-tagged ΔF508-CFTR expressing CFBE cells, in the presence of a co-corrector; conditions: HRP-tagged ΔF508-CFTR CFBE cells, in the presence of 3 μM co-corrector; for EC50: read-out: EC50
# Summary of the method: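 Chemiluminescent read-out of surface HRP (15 min, dark) after PBS washes. Activity is normalized as 100×(sample−DMSO)/(3 μM co-corrector alone−DMSO).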
# CFTR ΔF508 = target: T2, CFTR ΔF508 (Homo sapiens, UniProt P13569, DEL508-508); experiment: Chronic TECC assay, primary bronchial epithelial cells of CF patients homozygous for CFTR ΔF508 (corrector, co-corrector and potentiator); conditions: chronic TECC; for % Activity at 1 μM (Ieq*) / % Activity at 1 μM (AUC**): test compound at 1 μM
# T2 construct: bronchial epithelial cells isolated from CF patients homozygous for the CFTR ΔF508 mutation; McGill University; Asterand; University of North Carolina hAEC-CF; host or cells: primary human bronchial epithelial cells from CF patients homozygous for ΔF508, differentiated at air-liquid interface
# Summary of the method: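 Primary bronchial epithelial cells from ΔF508-homozygous CF patients on collagen IV-coated Transwells were chronically treated with test compound plus corrector and potentiator, which were re-added before recording. Ieq was derived from PD and Rt in NaCl-Ringer, pH 7.4, at 37° C, with apical amiloride and bilateral forskolin, recorded every 2 min over 20 min. Ieq increase was normalized to controls, and EC50 was taken from per-well concentrations.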
# [3] = Ieq = calculations based on the maximum current, read-out: EC50 (nM) (Ieq*)
# [4] = Ieq = calculations based on the maximum current
# [5] = AUC = full area under the curve upon forskolin stimulation, read-out: EC50 (nM) (AUC**)
# [6] = AUC = full area under the curve upon forskolin stimulation
# T2 sequence (P13569 with tags, fused parts or gaps DEL508-508): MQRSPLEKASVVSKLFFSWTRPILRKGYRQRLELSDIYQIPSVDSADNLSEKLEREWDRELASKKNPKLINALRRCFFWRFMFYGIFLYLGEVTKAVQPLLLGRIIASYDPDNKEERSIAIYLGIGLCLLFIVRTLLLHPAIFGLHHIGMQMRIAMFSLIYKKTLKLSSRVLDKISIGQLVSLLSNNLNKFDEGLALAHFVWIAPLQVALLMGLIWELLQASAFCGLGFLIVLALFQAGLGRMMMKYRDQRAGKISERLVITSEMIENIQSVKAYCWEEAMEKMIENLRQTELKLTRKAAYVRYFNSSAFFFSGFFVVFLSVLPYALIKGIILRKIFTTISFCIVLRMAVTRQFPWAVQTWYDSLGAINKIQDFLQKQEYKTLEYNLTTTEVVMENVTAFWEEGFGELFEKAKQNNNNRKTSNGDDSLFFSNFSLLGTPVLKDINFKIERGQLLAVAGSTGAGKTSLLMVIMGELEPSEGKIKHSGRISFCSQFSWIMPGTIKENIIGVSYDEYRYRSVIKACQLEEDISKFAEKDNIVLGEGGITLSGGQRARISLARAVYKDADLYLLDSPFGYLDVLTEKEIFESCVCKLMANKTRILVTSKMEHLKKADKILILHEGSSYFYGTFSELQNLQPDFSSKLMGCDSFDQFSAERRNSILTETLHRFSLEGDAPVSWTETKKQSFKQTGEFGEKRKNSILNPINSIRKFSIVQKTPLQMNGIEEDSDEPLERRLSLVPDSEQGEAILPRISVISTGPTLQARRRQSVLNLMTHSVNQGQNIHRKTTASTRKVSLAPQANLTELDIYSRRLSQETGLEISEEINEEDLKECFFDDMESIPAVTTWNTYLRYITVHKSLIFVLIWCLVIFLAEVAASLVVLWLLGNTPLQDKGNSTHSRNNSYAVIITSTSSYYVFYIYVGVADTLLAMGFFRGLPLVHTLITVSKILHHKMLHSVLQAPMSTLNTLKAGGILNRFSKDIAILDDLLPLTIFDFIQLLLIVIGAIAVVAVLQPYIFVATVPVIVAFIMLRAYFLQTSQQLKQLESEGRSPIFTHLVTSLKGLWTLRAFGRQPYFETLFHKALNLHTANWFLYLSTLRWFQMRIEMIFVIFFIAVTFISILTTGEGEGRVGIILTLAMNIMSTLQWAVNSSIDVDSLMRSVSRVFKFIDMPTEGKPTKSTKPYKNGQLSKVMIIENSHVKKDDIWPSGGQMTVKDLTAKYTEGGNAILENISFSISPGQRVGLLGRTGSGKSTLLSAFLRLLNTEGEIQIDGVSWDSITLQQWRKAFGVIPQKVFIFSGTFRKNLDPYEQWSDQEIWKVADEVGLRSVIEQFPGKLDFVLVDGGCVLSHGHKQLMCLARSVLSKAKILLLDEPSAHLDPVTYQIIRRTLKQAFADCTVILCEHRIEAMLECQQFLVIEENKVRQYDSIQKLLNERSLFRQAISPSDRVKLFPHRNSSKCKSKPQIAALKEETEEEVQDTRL
# T1 sequence (P13569 with tags, fused parts or gaps DEL508-508): as above
Structure (SMILES),% Activation (ΔF508-CFTR [1]),EC50 (ΔF508-CFTR [1]),% Activation (ΔF508-CFTR [2]),EC50 (ΔF508-CFTR [2]),EC50 (CFTR ΔF508; [3]),% Activity at 1 μM (Ieq*) (CFTR ΔF508; [4]),EC50 (CFTR ΔF508; [5]),% Activity at 1 μM (AUC**) (CFTR ΔF508; [6])
"CC(C)c1nn(-c2cccc(N3CCOCC3)n2)c2nc(C(=O)NS(C)(=O)=O)cc(-c3ccc(N4CCOCC4)cc3)c12 [Compound 128, N-(methanesulfonyl)-4-[4-(morpholin-4-yl)phenyl]-1-[6-(morpholin-4-yl)pyridin-2-yl]-3-(propan-2-yl)-1H-pyrazolo[3,4-b]pyridine-6-carboxamide]",357.47%,516 nM,529.57%,252 nM,< 30 nM,235%,,
"CC(C)c1nn(-c2ccnc(N3CCOCC3)c2)c2nc(C(=O)NS(C)(=O)=O)cc(-c3ccc(N4CCOCC4)cc3)c12 [Compound 136, N-(methanesulfonyl)-4-[4-(morpholin-4-yl)phenyl]-1-[2-(morpholin-4-yl)pyridin-4-yl]-3-(propan-2-yl)-1H-pyrazolo[3,4-b]pyridine-6-carboxamide]",262.38%,155 nM,428.1%,72.3 nM,,,23.5 nM,233.2%
"COCC1CCN(c2cc(C(=O)NS(C)(=O)=O)nc3c2c(C(C)C)nn3-c2cccc(N(C)C)c2)CC1 [Compound 144, 1-[3-(dimethylamino)phenyl]-N-(methanesulfonyl)-4-[4-(methoxymethyl)piperidin-1-yl]-3-(propan-2-yl)-1H-pyrazolo[3,4-b]pyridine-6-carboxamide]",531.6%,417 nM,674.7%,243 nM,12 nM,350%,,
"COCCS(=O)(=O)NC(=O)c1cc(N2CCC(OC)CC2)c2c(C3CCC3)nn(-c3ccccc3)c2n1 [Compound 146, 3-cyclobutyl-N-(2-methoxyethanesulfonyl)-4-(4-methoxypiperidin-1-yl)-1-phenyl-1H-pyrazolo[3,4-b]pyridine-6-carboxamide]",201.23%,356 nM,357.55%,96.9 nM,30 nM,310%,,
"COC1CCN(c2cc(C(=O)NS(C)(=O)=O)nc3c2c(C(C)C)nn3C2CCCCC2)CC1 [Compound 150, 1-cyclohexyl-N-(methanesulfonyl)-4-(4-methoxypiperidin-1-yl)-3-(propan-2-yl)-1H-pyrazolo[3,4-b]pyridine-6-carboxamide]",220.98%,576 nM,380.65%,318 nM,100 nM,,,
"CCCOC1CCN(c2cc(C(=O)NS(C)(=O)=O)nc3c2c(C2CCC2)nn3-c2ccccc2)CC1 [Compound 152, 3-cyclobutyl-N-(methanesulfonyl)-1-phenyl-4-(4-propoxypiperidin-1-yl)-1H-pyrazolo[3,4-b]pyridine-6-carboxamide]",242.35%,357 nM,409.9%,108 nM,,,16 nM,482.77%
"COC1CCN(c2cc(C(=O)NS(C)(=O)=O)nc3c2c(C(C)C)nn3-c2cccc(N(C)C)c2)CC1 [Compound 155, 1-[3-(dimethylamino)phenyl]-N-(methanesulfonyl)-4-(4-methoxypiperidin-1-yl)-3-(propan-2-yl)-1H-pyrazolo[3,4-b]pyridine-6-carboxamide]",439.5%,454 nM,555.45%,230 nM,,,4 nM,200%
"CC(C)c1nn(-c2ccnc(N3CCCC3)c2)c2nc(C(=O)NS(C)(=O)=O)cc(-c3ccc(N4CCC(C#N)CC4)nc3)c12 [Compound 158, 4-[6-(4-cyanopiperidin-1-yl)pyridin-3-yl]-N-(methanesulfonyl)-3-(propan-2-yl)-1-[2-(pyrrolidin-1-yl)pyridin-4-yl]-1H-pyrazolo[3,4-b]pyridine-6-carboxamide]",359.1%,622 nM,512.45%,267 nM,,,,370.9%
"CC(C)c1nn(-c2cccc(N(C)C)c2)c2nc(C(=O)NS(C)(=O)=O)cc(N3CCC(C#N)CC3)c12 [Compound 160, 4-(4-cyanopiperidin-1-yl)-1-[3-(dimethylamino)phenyl]-N-(methanesulfonyl)-3-(propan-2-yl)-1H-pyrazolo[3,4-b]pyridine-6-carboxamide]",285.57%,309 nM,490.4%,202 nM,,,160 nM,190%
"COC1CCN(c2cc(C(=O)NS(C)(=O)=O)nc3c2c(C(C)C)nn3-c2ccc(F)cc2)CC1 [Compound 167, 1-(4-fluorophenyl)-N-(methanesulfonyl)-4-(4-methoxypiperidin-1-yl)-3-(propan-2-yl)-1H-pyrazolo[3,4-b]pyridine-6-carboxamide]",260.6%,313 nM,429.4%,81.8 nM,,,32 nM,260%
"COCC1CCN(c2cc(C(=O)NS(C)(=O)=O)nc3c2c(C(C)C)nn3-c2ccc(F)cc2)CC1 [Compound 168, 1-(4-fluorophenyl)-N-(methanesulfonyl)-4-[4-(methoxymethyl)piperidin-1-yl]-3-(propan-2-yl)-1H-pyrazolo[3,4-b]pyridine-6-carboxamide]",399.2%,338 nM,581.55%,410 nM,,,38.2 nM,282.45%
"CC(C)c1nn(-c2ccnc(N3CCCC3)c2)c2nc(C(=O)NS(C)(=O)=O)cc(-c3ccc(N4CCC(C#N)CC4)cc3)c12 [Compound 169, 4-[4-(4-cyanopiperidin-1-yl)phenyl]-N-(methanesulfonyl)-3-(propan-2-yl)-1-[2-(pyrrolidin-1-yl)pyridin-4-yl]-1H-pyrazolo[3,4-b]pyridine-6-carboxamide]",344.25%,426 nM,519.3%,284 nM,,,2.1 nM,210%
"CC(C)c1nn(-c2ccc(F)cc2)c2nc(C(=O)NS(C)(=O)=O)cc(N3CCC4(CCO4)CC3)c12 [Compound 177, 1-(4-fluorophenyl)-N-(methanesulfonyl)-4-(1-oxa-7-azaspiro[3.5]nonan-7-yl)-3-(propan-2-yl)-1H-pyrazolo[3,4-b]pyridine-6-carboxamide]",99.405%,830 nM,263.9%,385 nM,,,> 100 nM,419.90%
"COCC1CCN(c2cc(C(=O)NS(C)(=O)=O)nc3c2c(C2CCC2)nn3-c2ccccc2)CC1 [Compound 185, 3-cyclobutyl-N-(methanesulfonyl)-4-[4-(methoxymethyl)piperidin-1-yl]-1-phenyl-1H-pyrazolo[3,4-b]pyridine-6-carboxamide]",331.6%,241 nM,546.7%,145 nM,,,45.4 nM,
"COC1CCN(c2cc(C(=O)NS(C)(=O)=O)nc3c2c(C(C)C)nn3-c2ccnc(N3CCOCC3)c2)CC1 [Compound 187, N-(methanesulfonyl)-4-(4-methoxypiperidin-1-yl)-1-[2-(morpholin-4-yl)pyridin-4-yl]-3-(propan-2-yl)-1H-pyrazolo[3,4-b]pyridine-6-carboxamide]",160%,223 nM,308.87%,69.3 nM,,,> 1000 nM,180%
"COC1CCN(c2cc(C(=O)NS(C)(=O)=O)nc3c2c(C(C)C)nn3-c2ccnc(N3CCCC3)c2)CC1 [Compound 188, N-(methanesulfonyl)-4-(4-methoxypiperidin-1-yl)-3-(propan-2-yl)-1-[2-(pyrrolidin-1-yl)pyridin-4-yl]-1H-pyrazolo[3,4-b]pyridine-6-carboxamide]",214.93%,274 nM,405.37%,160 nM,,,,257.3%
"CS(=O)(=O)NC(=O)c1cc(N2CCC(S(C)(=O)=O)CC2)c2c(C3CCC3)nn(-c3ccccc3)c2n1 [Compound 190, 3-cyclobutyl-N-(methanesulfonyl)-4-[4-(methanesulfonyl)piperidin-1-yl]-1-phenyl-1H-pyrazolo[3,4-b]pyridine-6-carboxamide]",284.8%,967 nM,502.4%,1240 nM,,,51 nM,269%
